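Step 1: Grow cells in 96-well plates. Step 2: Expose to compound for 48 hours at 5 concentrations. Step 3: Interpolate endpoints linearly; if unreached, use highest concentration. The concentration for 50% growth inhibition is given as GI50.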 Active and inactive are the calls of the source. Cut-off read from the data, not from the text of the source: active = GI50 up to about 1.1 µM and inactive = higher.
Columns and labels:
Experiment in all cases: inhibition of tumour cell growth, NCI panel, 48 h
SN12C = system: SN12C
UACC-62 = system: UACC-62
LOX IMVI = system: LOX IMVI
HT-29 = system: HT-29
Malme-3M = system: Malme-3M
CAKI-1 = system: CAKI-1
A549 = system: A549
UO-31 = system: UO-31
CCRF-CEM = system: CCRF-CEM
SF-539 = system: SF-539
ACHN = system: ACHN
OVCAR-8 = system: OVCAR-8
RXF 393 = system: RXF 393
IGROV-1 = system: IGROV-1
A498 = system: A498
MDA-MB-435 = system: MDA-MB-435
Hs-578T = system: Hs-578T

Row | Structure (SMILES) | GI50 (SN12C) | GI50 (UACC-62) | GI50 (LOX IMVI) | GI50 (HT-29) | GI50 (Malme-3M) | GI50 (CAKI-1) | GI50 (A549) | GI50 (UO-31) | GI50 (CCRF-CEM) | GI50 (SF-539) | GI50 (ACHN) | GI50 (OVCAR-8) | GI50 (RXF 393) | GI50 (IGROV-1) | GI50 (A498) | GI50 (MDA-MB-435) | GI50 (Hs-578T)
1 | Cn1cnc([N+](=O)[O-])c1[Se]c1ncnc2nc[nH]c12 | 11.7 µM (inactive) | 1.77 µM (inactive) | 0.497 µM (active) | 10 µM (inactive) | 3.72 µM (inactive) | 0.925 µM (active) | 27.5 µM (inactive) | 3.65 µM (inactive) | 9.51 µM (inactive) | 13.4 µM (inactive) | 17.1 µM (inactive) | 8.79 µM (inactive) | 15.5 µM (inactive) | 3.38 µM (inactive) | 3.59 µM (inactive) | 2 µM (inactive) | 3.7 µM (inactive)
2 | CC1(C)C(=O)N(O)C(C)(C)N1O | > 10 µM (inactive) | > 10 µM (inactive) | > 10 µM (inactive) | > 10 µM (inactive) | > 10 µM (inactive) | > 10 µM (inactive) | > 10 µM (inactive) | – | > 10 µM (inactive) | > 10 µM (inactive) | > 10 µM (inactive) | > 10 µM (inactive) | > 10 µM (inactive) | > 10 µM (inactive) | > 10 µM (inactive) | > 10 µM (inactive) | > 10 µM (inactive)
3 | CC(=O)NC1CONC1=O (stereo not drawn) | > 100 µM (inactive) | > 100 µM (inactive) | > 100 µM (inactive) | > 100 µM (inactive) | > 100 µM (inactive) | > 100 µM (inactive) | > 100 µM (inactive) | > 100 µM (inactive) | > 100 µM (inactive) | > 100 µM (inactive) | > 100 µM (inactive) | > 100 µM (inactive) | > 100 µM (inactive) | > 100 µM (inactive) | > 100 µM (inactive) | > 100 µM (inactive) | > 100 µM (inactive)
4 | COc1cc(C2c3cc4c(cc3OC3(OC)COC(=O)C23)OCO4)cc(OC)c1OC (stereo not drawn) | 0.478 µM (active) | 0.311 µM (active) | 0.188 µM (active) | 0.274 µM (active) | 0.605 µM (active) | 0.568 µM (active) | 0.375 µM (active) | 0.675 µM (active) | 0.305 µM (active) | 0.197 µM (active) | 0.618 µM (active) | 0.332 µM (active) | 0.142 µM (active) | 0.425 µM (active) | 0.281 µM (active) | 0.0863 µM (active) | 0.355 µM (active)
5 | CCC1([N+](=O)[O-])CN(N=O)C1 | > 100 µM (inactive) | > 100 µM (inactive) | > 100 µM (inactive) | > 100 µM (inactive) | > 100 µM (inactive) | > 100 µM (inactive) | > 100 µM (inactive) | > 100 µM (inactive) | > 100 µM (inactive) | > 100 µM (inactive) | > 100 µM (inactive) | > 100 µM (inactive) | > 100 µM (inactive) | > 100 µM (inactive) | > 100 µM (inactive) | > 100 µM (inactive) | > 100 µM (inactive)
6 | O=C(NCc1ccccc1)c1cnc(Cl)cn1 | > 100 µM (inactive) | > 100 µM (inactive) | 28.8 µM (inactive) | 33.2 µM (inactive) | 34.3 µM (inactive) | 16.2 µM (inactive) | > 100 µM (inactive) | 18.1 µM (inactive) | 23.1 µM (inactive) | > 100 µM (inactive) | 20.1 µM (inactive) | 52.4 µM (inactive) | > 100 µM (inactive) | 42.8 µM (inactive) | > 100 µM (inactive) | 62.7 µM (inactive) | 43.2 µM (inactive)
7 | COc1ccc(/C=C/C(=O)Oc2ccccc2OC)cc1 | 13.9 µM (inactive) | 54.5 µM (inactive) | 29.9 µM (inactive) | 16.4 µM (inactive) | 56.9 µM (inactive) | > 46.1 µM (inactive) | 37.8 µM (inactive) | 37.7 µM (inactive) | 0.336 µM (active) | 53.2 µM (inactive) | > 27.6 µM (inactive) | 26.5 µM (inactive) | > 51.5 µM (inactive) | 5.2 µM (inactive) | > 100 µM (inactive) | 40.6 µM (inactive) | 41.7 µM (inactive)
8 | O=C(Nc1cc2cc([N+](=O)[O-])ccc2oc1=O)c1cccs1 | 40.5 µM (inactive) | – | 20.3 µM (inactive) | 39.5 µM (inactive) | > 100 µM (inactive) | 48.6 µM (inactive) | 43.8 µM (inactive) | 60.4 µM (inactive) | 11.3 µM (inactive) | 25.6 µM (inactive) | 49 µM (inactive) | 34.2 µM (inactive) | 4.86 µM (inactive) | 34.4 µM (inactive) | > 100 µM (inactive) | 25.2 µM (inactive) | 30.8 µM (inactive)
9 | CNC(=O)Nc1cc2c3c(c1)CCCN3CCC2 | > 10 µM (inactive) | > 10 µM (inactive) | > 10 µM (inactive) | > 10 µM (inactive) | > 10 µM (inactive) | > 10 µM (inactive) | > 10 µM (inactive) | – | > 10 µM (inactive) | > 10 µM (inactive) | > 10 µM (inactive) | > 10 µM (inactive) | > 10 µM (inactive) | > 10 µM (inactive) | > 10 µM (inactive) | > 10 µM (inactive) | > 10 µM (inactive)
10 | CN(C)Cc1ccc(O)c(CN(C)C)n1 | > 100 µM (inactive) | > 100 µM (inactive) | > 100 µM (inactive) | > 100 µM (inactive) | > 100 µM (inactive) | > 100 µM (inactive) | > 100 µM (inactive) | > 100 µM (inactive) | – | > 100 µM (inactive) | > 100 µM (inactive) | > 100 µM (inactive) | > 100 µM (inactive) | > 100 µM (inactive) | > 100 µM (inactive) | > 100 µM (inactive) | > 100 µM (inactive)
11 | COc1cc2c(cc1OC)C1Cc3ccccc3CN1CCC2 (stereo not drawn) | > 100 µM (inactive) | > 100 µM (inactive) | > 100 µM (inactive) | 66.8 µM (inactive) | > 100 µM (inactive) | > 100 µM (inactive) | > 100 µM (inactive) | – | 46.9 µM (inactive) | > 100 µM (inactive) | > 100 µM (inactive) | > 100 µM (inactive) | > 100 µM (inactive) | > 100 µM (inactive) | 97.7 µM (inactive) | 47.6 µM (inactive) | 93.1 µM (inactive)
12 | O=C(c1ccccc1)C1C(c2ccccc2[N+](=O)[O-])N1C1CCCCC1 (stereo not drawn) | 4.39 µM (inactive) | 7.4 µM (inactive) | 2.1 µM (inactive) | 4.1 µM (inactive) | 12.4 µM (inactive) | 3.44 µM (inactive) | 16.6 µM (inactive) | 6.61 µM (inactive) | – | 2.1 µM (inactive) | 1.94 µM (inactive) | 1.86 µM (inactive) | 4.27 µM (inactive) | 4.25 µM (inactive) | 16.7 µM (inactive) | 2.6 µM (inactive) | 10.3 µM (inactive)

From ChEMBL document CHEMBL1201862, “PubChem BioAssay data set” (2004)
